In the supplement of paper PMC10307832:

Columns and labels:
Assay in all cases: relative viability (nuclei count vs DMSO), 5 days (fraction); higher = more cells survive
[1] = compound: CN(C)CC1=CC(=CC=C1)N=C(C2=CC=CC=C2)C3=C(NC4=C3C=CC(=C4)C(=O)N(C)C)O + C[C@@H](Oc1cc(-c2cnn(C3CCNCC3)c2)cnc1N)c1c(Cl)ccc(F)c1Cl [Crizotinib] (partner 1 µM)
Method in brief: (§1)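 The day after seeding in 1536-well plates, lung cancer cell lines were treated by pin tool with a single drug, or with a fixed anchor-drug dose together with five library-drug doses (not always all listed) in √10 steps. After 5 days, a combined fix-and-stain solution (final 0.05% Triton X-100, 1% formaldehyde, 1 ug/ml Hoechst) was added. Nuclei counted on 4× images gave relative viability as treated counts over vehicle counts, reported as the median of duplicate plates.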

[2] = compound: CN(C)CC1=CC(=CC=C1)N=C(C2=CC=CC=C2)C3=C(NC4=C3C=CC(=C4)C(=O)N(C)C)O + CS(=O)(=O)CCNCc1ccc(-c2ccc3ncnc(Nc4ccc(OCc5cccc(F)c5)c(Cl)c4)c3c2)o1 [Lapatinib] (partner 2 µM)
Method in brief: as §1

[3] = compound: CN(C)CC1=CC(=CC=C1)N=C(C2=CC=CC=C2)C3=C(NC4=C3C=CC(=C4)C(=O)N(C)C)O + Nc1ncn([C@H]2C[C@H](O)[C@@H](CO)O2)c(=O)n1 [Decitabine] (partner 2 µM)
Method in brief: as §1

[4] = compound: CN(C)CC1=CC(=CC=C1)N=C(C2=CC=CC=C2)C3=C(NC4=C3C=CC(=C4)C(=O)N(C)C)O + Cc1cc(Nc2cc(N3CCN(C)CC3)nc(Sc3ccc(NC(=O)C4CC4)cc3)n2)n[nH]1 [Tozasertib] (partner 0.1 µM)
Method in brief: as §1

Row | Cell Line | relative viability ([1]; first compound 0.08 µM) | relative viability ([1]; first compound 0.253 µM) | relative viability ([1]; first compound 0.8 µM) | relative viability ([1]; first compound 2.53 µM) | relative viability ([1]; first compound 8 µM) | relative viability ([2]; first compound 0.08 µM) | relative viability ([2]; first compound 0.253 µM) | relative viability ([2]; first compound 0.8 µM) | relative viability ([2]; first compound 2.53 µM) | relative viability ([2]; first compound 8 µM) | relative viability ([3]; first compound 0.08 µM) | relative viability ([3]; first compound 0.253 µM) | relative viability ([3]; first compound 0.8 µM) | relative viability ([3]; first compound 2.53 µM) | relative viability ([3]; first compound 8 µM) | relative viability ([4]; first compound 0.08 µM) | relative viability ([4]; first compound 0.253 µM) | relative viability ([4]; first compound 0.8 µM) | relative viability ([4]; first compound 2.53 µM) | relative viability ([4]; first compound 8 µM)
1 | HCC-366 | 0.484 | 0.503 | 0.513 | 0.47 | 0.558 | 0.949 | 0.939 | 1.07 | 1.01 | 1.08 | 0.385 | 0.36 | 0.34 | 0.333 | 0.341 | 0.17 | 0.133 | 0.131 | 0.153 | 0.118
2 | HCC-827 | 0.919 | 0.909 | 0.923 | 0.879 | 0.868 | 0.218 | 0.191 | 0.197 | 0.191 | 0.191 | 0.334 | 0.349 | 0.305 | 0.367 | 0.341 | 0.435 | 0.457 | 0.376 | 0.408 | 0.396
3 | HOP-62 | 0.927 | 0.907 | 1.09 | 1.06 | 0.882 | 1.03 | 1.11 | 1.14 | 1.05 | 0.946 | 0.21 | 0.282 | 0.195 | 0.206 | 0.262 | 0.389 | 0.383 | 0.364 | 0.334 | 0.376
4 | LC-2-ad | 0.406 | 0.402 | 0.486 | 0.4 | 0.441 | 1.03 | 0.893 | 0.879 | 0.876 | 0.981 | 0.694 | 0.848 | 0.747 | 0.841 | 0.782 | 0.503 | 0.409 | 0.415 | 0.492 | 0.407
5 | LCLC-97TM1 | 0.37 | 0.517 | 0.453 | 0.331 | 0.445 | 1.14 | 1.02 | 1.13 | 1.37 | 0.574 | 0.271 | 0.261 | 0.225 | 0.219 | 0.205 | 0.219 | 0.256 | 0.224 | 0.283 | 0.255
6 | LCLC-103H | 1.14 | 1.06 | 0.914 | 1.02 | 0.979 |  |  |  |  |  | 0.785 | 0.725 | 0.723 | 0.739 | 0.641 | 0.455 | 0.524 | 0.551 | 0.516 | 0.509
7 | LK-2 | 0.249 | 0.21 | 0.264 | 0.256 | 0.216 | 1.05 | 0.97 | 0.898 | 0.841 | 0.637 | 0.306 | 0.375 | 0.276 | 0.328 | 0.286 | 0.162 | 0.165 | 0.171 | 0.188 | 0.198
8 | LOU-NH91 | 0.777 | 0.723 | 0.689 | 0.746 | 0.712 | 0.721 | 0.836 | 0.75 | 0.743 | 0.697 | 0.781 | 0.822 | 0.757 | 0.803 | 0.818 | 0.68 | 0.673 | 0.54 | 0.642 | 0.629
9 | LU99A | 0.565 | 0.551 | 0.61 | 0.513 | 0.411 | 1.06 | 1 | 1.01 | 0.922 | 0.756 | 0.925 | 0.79 | 0.885 | 0.927 | 0.673 | 0.312 | 0.3 | 0.384 | 0.22 | 0.198
10 | LXF-289 | 0.871 | 0.762 | 0.758 | 0.773 | 0.757 | 0.888 | 0.887 | 0.893 | 0.86 | 0.815 | 0.343 | 0.368 | 0.366 | 0.384 | 0.374 | 0.174 | 0.19 | 0.137 | 0.159 | 0.197
11 | NCI-H441 | 0.463 | 0.748 | 1.04 | 0.627 | 0.629 |  |  |  |  |  | 0.248 | 0.282 | 0.282 | 0.237 | 0.221 | 0.625 | 0.603 | 0.67 | 0.634 | 0.588
12 | NCI-H1299 | 0.92 | 0.93 | 0.988 | 0.834 | 0.939 | 0.957 | 0.914 | 0.977 | 0.875 | 0.915 |  |  |  |  |  |  |  |  |  | 
13 | NCI-H1395 |  |  |  |  |  | 0.948 | 1.14 | 1.2 | 0.892 | 0.943 | 0.752 | 0.757 | 0.759 | 0.727 | 0.758 | 0.85 | 0.831 | 0.789 | 0.746 | 0.771
14 | NCI-H1563 | 0.872 | 0.871 | 0.833 | 0.846 | 0.771 | 1.04 | 0.894 | 0.815 | 0.683 | 0.817 |  |  |  |  |  |  |  |  |  | 
15 | NCI-H1648 |  |  |  |  |  |  |  |  |  |  | 0.418 | 0.568 |  | 0.538 | 0.544 | 0.419 |  | 0.572 | 0.383 | 0.396
16 | NCI-H1703 | 0.65 | 0.591 | 0.715 | 0.341 | 0.138 | 1.12 | 1.22 | 1.48 | 0.762 | 0.296 |  |  |  |  |  |  |  |  |  | 
17 | NCI-H1792 | 0.68 | 0.97 | 0.954 | 0.786 | 0.915 | 0.866 | 0.896 | 0.873 | 0.818 | 0.945 | 0.506 | 0.594 | 0.585 | 0.484 | 0.602 |  |  |  |  | 
18 | NCI-H1793 |  |  |  |  |  | 0.79 | 0.665 | 0.569 | 0.823 | 0.891 | 0.53 | 0.509 | 0.52 | 0.49 | 0.644 | 0.305 | 0.385 |  | 0.368 | 0.347
19 | NCI-H2228 | 0.406 | 0.505 | 0.442 | 0.432 | 0.361 | 1.06 | 1.13 | 1.19 | 0.704 | 0.846 |  |  |  |  |  | 0.221 | 0.332 | 0.265 | 0.228 | 0.232
20 | NCI-H2342 |  |  |  |  |  |  |  |  |  |  | 0.728 | 0.74 | 0.817 | 0.798 | 0.848 | 0.497 | 0.601 | 0.549 | 0.45 | 0.613
